Legend:
[1] = DPRA-like chemoassay with Gly-pNA (24 h percent depletion); details: PPB pH 7.4, 24 h, 25 °C, 50-fold excess of test compound
Experimental: (§1) In addition to the kinetic Gly-pNA chemoassay, the reactivity of the 27 compounds toward Gly-pNA and Lys-pNA was determined in terms of percentage depletions after reacting for 24 h at 25 °C employing the following DPRA-like setup: stock solutions for the test compounds were prepared by gravimetrically adding at least 3 mg of the respective compound into a glass vial (total volume 1.8 mL) and subsequent addition of 1 mL ACN. […] The stock solutions for Gly-pNA and Lys-pNA with a final concentration of 1.7 mM were prepared by dissolving the required amount in one of the three aqueous buffer solutions used for this DPRA-like chemoassay: phosphate buffer (80 mM, pH 7.4), phosphate buffer (80 mM, pH 10.2), and ammonium acetate buffer (100 mM, pH 10.2). Glass vials (1.8 mL) were used as reaction vessels.
(§2) In the final reaction mixtures, the concentration of Gly-pNA or Lys-pNA was 0.03 mM, and the test compound was 50 times in excess (1.5 mM). After incubation for 24 h at 25 °C, the free amount of either Gly-pNA or Lys-pNA was determined using the HPLC UV–vis method described for the kinetic Gly-pNA chemoassay. , The percentage depletion of Gly-pNA (D Gly) or Lys-pNA (D Lys) was determined directly from peak areas according to eq 3 Dx[%]=(Axcontrol−Ax/Axcontrol×100)withx=GlyorLys
(§3) In eq , A x and A x ^control are the peak areas of the chromatographic signal of either Gly-pNA (x = Gly) or Lys-pNA (x = Lys) at 315 nm after 24 h incubation with and without test compound, respectively.
(§4) Summary of experimental conditions of the DPRA-like setups used to determine
(§5) DGly, D Lys, and D DPRA data in Table 2 (main text).
(§6) Table S2. Overview of experimental conditions for the DPRA-like setups used to
(§7) determine 24 h percentage depletion rates for the reaction of the test compounds with
(§8) Gly-pNA, Lys-pNA, and the DPRA lysine peptide (literature data).

[2] = DPRA-like chemoassay with Lys-pNA (24 h percent depletion); details: 25 °C, 50-fold excess of test compound
Experimental: as §1, §2, §3, §4, §5, §6, §7, §8

[3] = Stability assessment of test compounds in aqueous buffers (half-lives)
Experimental: To this end, the test compound was dissolved in 1 mL ACN in a glass vial. […] As reaction batches, 1.8 mL glass vials equipped with 400 μL glass inserts were used and filled with 220 μL of the respective aqueous buffer and 80 μL of the test compound stock solution. The depletion of the test compounds was recorded with the HPLC UV–vis instrument used for the kinetic Gly-pNA chemoassay. , Chromatographic separation of the reaction mixture was achieved using the gradient described for the Gly-pNA chemoassay previously , and an isocratic HPLC method (water/ACN 70:30, both with 0.1 vol % formic acid). The wavelengths used for the detection of the compound and the information on the used chromatographic method are given in the Supporting Information in Table S3.

[4] = ref Krutz et al., Sadekar et al., Ponder et al., Karol et al., Hopkins et al.; cited from earlier work
[5] = Kinetic Gly-pNA chemoassay (second-order rate constant k Gly); details: reaction with Gly-pNA, nominal test compound concentration; for k Gly ± s(k Gly), second-order rate constant: phosphate buffer 80 mM, 25 °C, ≥ values are minimum reactivity; for log k Gly: phosphate buffer;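 for all read-outs here: Gly-pNA depletion followed over time by chromatographic peak area, with test compound in at least tenfold excess (pseudo-first-order), added from acetonitrile stock, at least three runs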
Experimental: The reactivity of the 27 test compounds toward Gly-pNA was quantified in terms of the second-order reaction rate constant k Gly using our Gly-pNA chemoassay. , In brief, stock solutions of the test compound were freshly obtained every day by gravimetrically adding the required amount into a 10 mL volumetric flask, which was subsequently filled to volume with acetonitrile (ACN). The required amounts of test compounds depended on their reactivity toward Gly-pNA. […] As usual for kinetic studies, fast reacting chemicals are applied at lower concentrations than little reactive candidates. All stock solutions were stored at 25 °C in a climate chamber before first use (ca. 30 min) and for repeating an experiment (max. 6 h). Gly-pNA stock solution (1.69 mM) was obtained by dissolving 3.3 mg Gly-pNA in 10 mL phosphate buffer solution (80 mM) and could be used for several weeks if stored at 4 °C. For all chemoassay experiments, 1.8 mL glass vials were used as reaction batches, which were initially filled with 1070 μL phosphate buffer (80 mM) and 30 μL Gly-pNA stock solution. To start the reaction, 400 μL of the test compound stock solutions was added. […] The time between the start of the reaction and the first analysis was measured with an electronic time clock. All reactions were performed under pseudo-1st order conditions with the electrophile being at least ten times in excess over Gly-pNA.
For these compounds, the minimum reactivity was estimated in terms of k Gly by plotting ln (A Gly ^ t /A Gly ^0) vs reaction time t (with A Gly ^ t and A Gly ^0 being the peak areas under the chromatographic signal for Gly-pNA at time t and at the beginning of the reaction (t = 0)). Linear regression through 0 (at t = 0) and the first measurement point yields slope s (see Figure S1) which is the pseudo-1st order rate constant k Gly ^pseudo that can be converted with the initial test compound concentration in the reactions mixture (c) into k Gly according to eq . 1 kGly=kGlypseudo/c
2 Ln(AGlyt/AGly0)≈−kGly·c·t+0.5·kGly·kloss·c·t^2 Here k loss is the first order rate constant covering all processes contributing to the loss of the test compounds, except the reaction with Gly-pNA. The regression parameter of the linear part of eq (= k Gly·c) is the pseudo-1st order rate constant k Gly ^pseudo and can be converted into k Gly according to eq (see above).
Linear regression of these plots provides slope s, which is again the pseudo-1st order rate constant, k Gly ^pseudo, and can be used to calculate k Gly according to eq . All experiments to determine k Gly have been conducted at least three times.

DPRA lysine peptide = tested on: DPRA lysine peptide; set-up: method as in literature; details: AAB pH 10.2, 24 h; ref literature; cited from earlier work
[6] = AAB (ammonium acetate buffer) pH 10.2, 24 h
[7] = buffer, pH 7.4, half-lives t 1/2 ± s(t 1/2), PPB (phosphate buffer 80 mM) pH 7.4
[8] = buffer, pH 10.2, half-lives t 1/2 ± s(t 1/2), AAP (ammonium acetate buffer 100 mM) pH 10.2
[9] = buffer, pH 10.2, half-lives t 1/2 ± s(t 1/2), PPB (phosphate buffer 80 mM) pH 10.2

Compound	D Gly ± s(D Gly), 24 h percent depletion of Gly-pNA [1] [%]	D Lys ± s(D Lys), 24 h percent depletion of Lys-pNA [2, 6] [%]	D Lys ± s(D Lys), 24 h percent depletion of Lys-pNA ([2]; PPB pH 10.2, 24 h) [%]	half-life [3, 7] [min]	half-life [3, 8] [min]	half-life [3, 9] [min]	Classification as potential respiratory sensitizer or non-sensitizer [4]	k Gly ± s(k Gly), second-order rate constant [5] [L mol^–1 min^–1]	log k Gly [5]	D DPRA ± s(D DPRA), depletion of the DPRA lysine peptide (DPRA lysine peptide) [%]	half-lives t 1/2 ± s(t 1/2) ([3]; PPB (phosphate buffer 80 mM) pH 7.4)	half-life ([3]; buffer, pH 7.4, half-lives t 1/2 ± s(t 1/2)) [min]	half-life ([3]; buffer, pH 10.2, half-lives t 1/2 ± s(t 1/2)) [min]	half-life ([3]; aqueous ammonium acetate buffer with acetonitrile, pH 10.2) [min]	half-life ([3]; aqueous phosphate buffer with acetonitrile, pH 7.4) [min]	half-life ([3]; aqueous phosphate buffer with acetonitrile, pH 10.2) [min]	k Gly ± s(k Gly), second-order rate constant ([5]; listed as himic anhydride) [L mol^–1 min^–1]
O=C=Nc1cccc2c(N=C=O)cccc12 [A2, 1,5-naphthalene diisocyanate]	100	19.9 ± 3.7	100	3.6 ± 1.6	< 1	2.6 ± 1.1	potential respiratory sensitizer	≥24928 ± 12821	≥4.40								
O=C1OC(=O)c2c(Cl)c(Cl)c(Cl)c(Cl)c21 [C3, tetrachlorophthalic anhydride]	100	11.5 ± 1.8	99.2 ± 0.7	24.3 ± 0.6	< 1	< 1	potential respiratory sensitizer	≥9816 ± 858	3.99	83.5 ± 0.7							
O=C1C=CC(=O)O1 [C4, maleic anhydride]	100	12.0 ± 1.1	100	35.3 ± 1.3	< 1	2.7		≥5930 ± 160	3.77	54.0 ± 25.5							
CC12CC=CCC1C(=O)OC2=O (stereo not drawn) [D2, methyltetrahydrophthalic anhydride]	100	18.0 ± 0.9	100	2.24 ± 0.03	< 1	< 1	potential respiratory sensitizer	2051 ± 32	3.31								
C=C(C)C(=O)OC [F5, methyl methacrylate]		0.7 ± 0.3	2.6 ± 1.3		3060 ± 625	1880 ± 488				10.6 ± 0.8	no depletion						
Cc1ccc(N=C=O)cc1N=C=O [A1, 2,4-Toluene diisocyanate]	100	18.8 ± 0.6	100					≥33484 ± 803		22.0 ± 1.4		< 1	< 1				
O=C1OC(=O)C2C3C=CC(C3)C12 (stereo not drawn) [C5, himic anhydride]	100	29.6 ± 0.3	98.9 ± 0.1				potential respiratory sensitizer	4126 ± 114	3.62					< 1	6.79 ± 0.13	1.3 ± 0.41	4126

Reference: paper PMC12175168, “Refining the Amino Reactivity-Based Identification of Respiratory Sensitizers” (Chemical Research in Toxicology, 2025)
